Experimental data taken from patent US20220202882A1, “EFFECT OF COMBINATION OF BIFIDOBACTERIUM AND BERBERINE ON PRE-DIABETES AND TYPE 2 DIABETES” (The Fourth Military Medical University, priority 2018, published 2022).
Counter-ions that a name gives are not always drawn.

System: pre-diabetic and type 2 diabetes mellitus patients
Assay: Clinical trial: blood lipids (total cholesterol, HDL, LDL)
Assay type: in vivo, human
Settings: for Effect on total cholesterol level (in words) / High-density lipoprotein change, mean value / Post-treatment low-density lipoprotein - pre-treatment low-density lipoprotein, mean value / Post-treatment total cholesterol - pre-treatment total cholesterol, mean value: 16 weeks of treatment; for Effect on total cholesterol level (in words): Kruskal-Wilcox test; for Post-treatment low-density lipoprotein, mean value / Post-treatment total cholesterol, mean value: after 16 weeks of treatment; for Pre-treatment low-density lipoprotein, mean value / Pre-treatment total cholesterol, mean value: baseline before treatment
Experimental: From June 2015 to October 2018, a double-blind, randomized, and parallel-controlled trial, studying the effects of the combined use of Bifidobacterium and berberine on pre-diabetic and type 2 diabetes mellitus patients, was conducted in 10 research centers in Xi'an, Yan'an and Shangluo of Shaanxi province, etc., including the First Affiliated Hospital of the Fourth Military Medical University. The trial included an enrollment stage of 2 weeks and a treatment stage of 16 weeks. After passing the first visit 1 (see V1 in Table 1), the subjects entered the enrollment stage, i.e., 2 weeks of lifestyle intervention, followed by a re-screening (see V2 in Table 1). The subjects were subjected to a 16-week course of treatment after passing the screening. See Table 1 for the detailed screening parameters. After the enrollment stage, the baseline data of the 300 successfully enrolled subjects were collected. Meanwhile, the subjects started to receive lifestyle guidance, and were randomly divided into four groups for 16 weeks of treatments. 1) Bifidobacterium group: the subjects were administered with Bifidobacterium capsules (Livzon Pharmaceutical Group Inc., batch no.: 20141013), 0.35 g/capsule, each capsule containing 50,000,000 viable bacteria (Bifidobacterium adolescentis DM8504), 2 capsules/time, 2 times/day, plus berberine placebo tablets (Northeast Pharma Group Shenyang First Pharma Co., Ltd., Lot no.: 20150101, containing 80.2% microcrystalline cellulose, 9.4% pregelatinized starch, 6.4% sodium carboxymethyl starch, 1% magnesium stearate, and 3% copovidone), 0.1 g/tablet, 5 tablets/time, 2 times/day. 2) Berberine group: the subjects were administered with berberine tablets (Northeast Pharma Group Shenyang First Pharma Co., Ltd., Lot no.: 130917, each tablet weighted 0.165 g and contained 0.1 g active berberine ingredient (berberine hydrochloride), with the same excipients as the placebo tablets), 5 tablets/time, 2 times/day, plus Bifidobacterium placebo capsules (Livzon Pharmaceutical Group Inc., Lot no.: 141001, specifically containing 0.348 g spray-dried lactose, and 0.002 g magnesium stearate), 0.35 g/capsule, 2 capsules/time, 2 times/day. 3) Combination Group: the subjects were administered with Bifidobacterium capsules, 0.35 g/capsule, each capsule containing 50,000,000 viable bacteria (B. adolescentis DM8504), 2 capsules/time, 2 times/day, plus berberine tablets, 0.1 g/tablet, each tablet containing 0.1 g active berberine ingredient (berberine hydrochloride), 5 tablets/time, 2 times/day. 4) Control group: the subjects were administered with Bifidobacteria placebo capsules, 0.35 g/capsule, 2 capsules/time, 2 times/day, plus berberine placebo tablets, 0.1 g/tablet, 5 tablets/time, 2 times/day. Bifidobacterium capsules were taken after meals and berberine tablets were taken before meals. Tests of all samples in the study were carried out in a designated laboratory with standardized criteria. Blood analysis covered hundreds of indicators including insulin, amino acids, cytokines etc. After the sample testing was finished, 1) Chi-Squared test and t-test were used to evaluate the intergroup balance of the baseline data including the demographic characteristics and pre-treatment indicators, wherein the baseline data referred to those collected at the second visit, before the formal administration, the data collected at the first visit on the enrollment stage were used instead if the data at the second visit was lacking; 2) two-way disordered CM-CH11, Kruska-Wilcox test, etc. were used for analysis and intergroup comparison of pre- and post-treatment indicators such as fasting plasma glucose (FPG), HbA1c, plasma glucose at 2 hours post OGTT (2-h PPG), blood pressure, blood lipids, body weight and BMI; 3) adverse events and hypoglycemia events were described in terms of the type, frequency and relevance with the drugs, for safety evaluation. Software SAS 9.1.3 was used for statistical analysis with all analysis processes being programmed. […]

Compound	Effect on total cholesterol level (in words)	High-density lipoprotein change, mean value (FAS)	Post-treatment low-density lipoprotein - pre-treatment low-density lipoprotein, mean value (FAS)	Post-treatment total cholesterol - pre-treatment total cholesterol, mean value (FAS)	Post-treatment low-density lipoprotein, mean value (FAS)	Post-treatment total cholesterol, mean value (FAS)	Pre-treatment low-density lipoprotein, mean value (FAS)	Pre-treatment total cholesterol, mean value (FAS)	High-density lipoprotein change, mean value (PPS)
COc1ccc2cc3[n+](cc2c1OC)CCc1cc2c(cc1-3)OCO2 [Berberine, berberine hydrochloride]	significantly reduce the total cholesterol level	0.00 mmol/L	-0.15 mmol/L	-0.2770 mmol/L	2.76 mmol/L	4.6400 mmol/L	2.99 mmol/L	5.0200 mmol/L	-0.00 mmol/L
Bifidobacterium	did not have evident total cholesterol lowing effect	0.03 mmol/L	-0.00247 mmol/L	0.0219 mmol/L	2.9 mmol/L	4.8100 mmol/L	2.85 mmol/L	4.7600 mmol/L	0.03 mmol/L
